From paper PMC11802874, “The hypolipidemic effect of MI-883, the combined CAR agonist/ PXR antagonist, in diet-induced hypercholesterolemia model” (Nature Communications, 2025)
“And” between values parts separate entries of the source, which are not always exact repeats. Equal values may be shown once.

What was measured:
[1] = test system: humanized PXR-CAR-CYP3A4/3A7 mice fed HFD; assay: High-fat diet (HFD) study: weights, food intake, plasma biochemistry, histology; assay type: in vivo, mouse; set-up: BW (Fig 4b) / LW (Fig 4b) / LDL (Fig. 4e) / HDL (Fig. 4e) / TG (Fig. 4e) / Chol (Fig. 4e) / Glu (Fig. 4e) / food intake (Fig 4c) / AST / ALT / ALB / ALP / LDH / Urea / Uric acid / Fe / Bilirubin / CREZ / BW: unit not given here; conditions: for BW: FigS12c, group mean
Method: For experiment involving a HFD in the model of diet-induced metabolic syndrome and type 2 diabetes with hypercholesterolemia, both male and female mice at the age of 10–15 weeks were pretreated for 8 weeks with HFD (E15186 EF R/M with 30% fat, ssniff ®, Soest, Germany) containing 30.1% crude fat, 20.8% protein and 171 mg/kg of cholesterol, ad libitum (Fig. 4a). Mice were then randomly assigned to MI-883 or control groups (17 male animals per group for the control or MI-883-treated group, 15 female animals per group for control and MI-883 treated groups, respectively). They were administered via oral gavage with either MI-883 treatment (5 mg/kg, 3x per week on Mo, We, Fri) or vehicle (5%DMSO/5%PEG300/90%corn oil) while still fed with HFD. Mice were sacrificed after 4 weeks of treatment.
Mice were weighted and tissues (livers, blood, duodenum, jejunum, ileum, white fat) were removed, weighted and snap frozen in liquid nitrogen and stored at –80 °C until analysis. Blood was collected from the retro-orbital sinus of mice under isoflurane anesthesia into heparin-coated tubes (Kabe Laboratortechnik GmbH, Nümbrecht-Elsenroth, Germany) after 3 h fasting and analyzed on AU480 biochemistry analyzer (Beckman Coulter, Brea, USA). Sample preparation for bile acid and cholesterol analyses from tissues or feces is described below. One of the liver lobes was fixed in formalin, embedded in paraffin blocks, sectioned, and subjected to H&E staining. Blood was analyzed as described in Supplementary, Chapter 10.
Blood was collected from the retro-orbital sinus of mice under isoflurane anesthesia into heparin-coated tubes (Kabe Laboratortechnik GmbH, Nümbrecht-Elsenroth, Germany) after 3 hours of fasting. Blood was left for 10 minutes at room temperature, and then kept on ice until centrifugation (5,000 g at 4°C for 10 minutes). The collected plasma was stored at -80 °C until measurement. Lipoprotein levels and other plasmatic parameters were measured on an AU480 biochemistry analyzer (Beckman Coulter, Brea, USA).

[2] = Metabolic stability in mouse liver S9 fraction; conditions: male, CD-1, mouse
Method: Shimadzu HPLC system including vacuum degasser, gradient pumps, reverse phase HPLC column, column oven, and autosampler with an API 4000 QTRAP mass spectrometer (Applied Biosystems/MDS Sciex (AB Sciex) with Turbo V ion source and TurboIonspray interface were used. The reference compound midazolam, which is metabolized both by phase I and phase II enzymes, was used. The elimination constant (kel), half-life (t1/2), and intrinsic clearance (Clint) were determined[19] (Table S1).

[3] = HFD and HCD studies (Fig. 4e, h)
[4] = HFD, MI883 HFD, individual animals
[5] = chow / vehicle / MI-883, individual animals
[6] = individual animals, MI-883 vs vehicle
[7] = normal diet, individual animals

In the case of NC(=O)c1cc(Cn2cc(-c3c(-c4ccc(Cl)cc4)nc4cc(F)ccn34)nn2)ccc1Cl [MI-883, 2-chloro-5-((4-(2-(4-chlorophenyl)-7-fluoroimidazo[1,2-a]pyridin-3-yl)-1H-1,2,3-triazol-1-yl)methyl)benzamide], the BW ([1]; time point 0) is reported as 100, the BW ([1]; time point 3) is reported as 99.94 and the BW ([1]; time point 4) is reported as 99.69. For the same compound, the BW ([1]; time point 7) was 98.81, the BW ([1]; time point 8) was 98.7 and the BW ([1]; time point 9) was 99.01. For the same compound, the BW ([1]; time point 11) was 97.62, the BW ([1]; time point 14) was 97.62 and the BW ([1]; time point 16) was 98.66. It also gave a BW ([1]; time point 18) of 95.35, a BW ([1]; time point 21) of 95.54 and a BW ([1]; time point 25) of 95.05. The “hepatic histology, morphology, steatosis with ballooning cells” value ([1]; H&E staining) was “did not observe affected hepatic histology, morphology, and steatosis”, the “plasma HDL cholesterol concentrations in males” value ([1]; HFD and HCD studies) was “decrease” and the “plasma LDL cholesterol levels” value [1, 3] was “systematic decrease”. The “total plasma cholesterol concentration” value [1, 3] was “systematic decrease”, the ALB ([1]; HFD female, individual animals) was 24.33 and 24.2 and 23.24 and 26.55 and 24.9 and the ALP ([1]; HFD female, individual animals) was 113 and 92 and 67 and 82 and 103 and 98 and 123 and 110 and 111 and 88 and 70 and 60 and 74 and 94 and 83 and 97. The ALT ([1]; HFD female, individual animals) was 22 and 33 and 42 and 31 and 44 and 26 and 25 and 20 and 30 and 27, the AST ([1]; HFD female, individual animals) was 36 and 56 and 60 and 42 and 80 and 46 and 43 and 45 and 48 and 52 and the Bilirubin ([1]; HFD female, individual animals) was 1.91 and 1.99 and 1.49 and 1.73 and 2.08 and 1.88 and 2.79 and 0.89 and 1.63 and 0.8 and 1.21 and 0.66 and 1.02 and 0.93. For the same compound, the CREZ ([1]; HFD female, individual animals) was 8.81 and 10.944 and 9.86 and 9.877 and 9.32 and 9.613 and 6.396, the Fe ([1]; HFD female, individual animals) was 19.66 and 16.34 and 16.57 and 13.12 and 20.06 and 22.23 and 20.85 and the LDH ([1]; HFD female, individual animals) was 105.53 and 141.23 and 148.87 and 187.77 and 168.5 and 171.83 and 139.86 and 141.62 and 132.6 and 117.06 and 243.58 and 169.43 and 199.88 and 175.99 and 186.41 and 240.46 and 159.98. The Urea ([1]; HFD female, individual animals) was 6.32 and 7.96 and 9.13 and 6.71 and 5.59 and 7.45 and 7.35 and 5.3, the “body weight or food intake” value ([1]; HFD, 5 mg/kg 3× per week p.o., one month) was “no significant effect” and the “liver weight (LW) and liver-to-body weight (LW/BW)” value ([1]; HFD, after 1-month application) was “increase”. The ALB [1, 4] was 30.28 and 28.44 and 27.19 and 26.19 and 27.85 and 26.86 and 29.5 and 28.87 and 29.11 and 28.18 and 27.81 and 29.6 and 31.94 and 31.6 and 25.37 and 30.94, the ALP [1, 4] was 46 and 65 and 58 and 53 and 57 and 59 and 87 and 78 and 134 and 85 and 147 and 42 and 80 and 203 and 48 and 62 and 47 and the ALT [1, 4] was 111 and 104 and 91 and 82 and 86 and 81 and 194 and 185 and 231 and 101 and 144 and 333 and 40 and 171 and 279 and 78 and 136 and 35. The AST [1, 4] was 61 and 103 and 71 and 75 and 84 and 65 and 111 and 106 and 115 and 97 and 60 and 215 and 57 and 86 and 96 and 62, the Bilirubin [1, 4] was 6.24 and 2.33 and 2.77 and 2.03 and 2.43 and 2.14 and 2.07 and 1.65 and 0.69 and 0.83 and 0.78 and 2.19 and 1.62 and 2.1 and 2.2 and 2.29 and 2.82 and 3.89 and the CREZ [1, 4] was 6.64 and 6.515 and 6.651 and 6.864 and 6.4 and 11.788 and 9.016 and 8.705 and 10.01 and 10.479 and 10.075 and 9.458 and 9.179 and 10.214 and 7.193 and 7.711. The Fe [1, 4] was 25.96 and 27.35 and 19.07 and 29.46 and 21.87 and 40.46 and 33.38 and 35.58 and 29.04 and 23.68 and 27.39 and 20.96 and 37.12 and 36.65 and 34.04 and 37.51 and 32.98 and 21.67 and 30.02 and 31.93, the LDH [1, 4] was 198.22 and 263.31 and 253.93 and 193.25 and 209.81 and 272.82 and 399.88 and 396.59 and 572.08 and 407.53 and 224.02 and 465.2 and 571.59 and 132.99 and 401.74 and 1012.86 and 180.55 and 261.31 and 251.38 and 204.74 and the Urea [1, 4] was 8.86 and 6.88 and 6.46 and 8.34 and 10.25 and 5.64 and 6.34 and 6.16 and 6.83 and 6.9 and 7.15 and 6.75 and 6.76 and 5.98 and 5.4. For the same compound, the Uric acid [1, 4] was 34.39 and 75.29 and 81.6 and 51.23 and 51.93 and 56.87 and 65.17 and 44.52 and 78.74 and 74.95 and 74.71 and 112.08 and 32.89 and 40.5 and 30.33 and 46.79 and 41.52 and 45.58 and 40.84, the “food intake (Fig 4c)” value ([1]; MI-883 vs vehicle line) was 2.1 and 3.3 and 2.8 and 2.6 and 2.7 and the “triglycerides and glucose concentrations in males” value ([1]; both studies) was “did not see any significant effects”. For the same compound, the “signs of hepatotoxicity or nephrotoxicity based on biochemical parameters” value ([1]; both studies (HFD, HCD)) was “did not observe”, the “other plasma biochemical parameters” value ([1]; both studies, Supplementary Fig. 11) was “did not impact” and the “Chol (Fig. 4e)” value [1, 5] was 4.25 and 4.28 and 2.95 and 3.55 and 3.29 and 4.43 and 4.16 and 4.71 and 4.02 and 3.77 and 3.86 and 4.66 and 3.96 and 4.68 and 3.68. For the same compound, the “Glu (Fig. 4e)” value [1, 5] was 10.58 and 14.95 and 11.18 and 14.52 and 13.99 and 12.86 and 13.45 and 16.77 and 19.28 and 18.71 and 17.05 and 15.9 and 14.58 and 9.64 and 14.8 and 12.42, the “HDL (Fig. 4e)” value [1, 5] was 3.307 and 3.291 and 2.143 and 2.747 and 3.405 and 3.464 and 3.127 and 2.59 and 3.382 and 3.348 and 3.749 and 3.32 and 3.251 and 2.944 and 3.197 and 2.432 and 3.457 and 2.752 and the “LDL (Fig. 4e)” value [1, 5] was 0.69 and 0.66 and 0.46 and 0.49 and 0.67 and 0.52 and 0.82 and 0.7 and 1.08 and 0.75 and 0.63 and 0.85 and 1.01 and 0.81. The “TG (Fig. 4e)” value [1, 5] was 3.307 and 3.291 and 2.143 and 2.747 and 3.405 and 3.464 and 3.127 and 2.59 and 3.382 and 3.348 and 3.749 and 3.32 and 3.251 and 2.944 and 3.197 and 2.432 and 3.457 and 2.752, the “BW (Fig 4b)” value [1, 6] was 36.3 and 38.1 and 36.8 and 38.8 and 38 and 34.3 and 36.4 and 31 and 45.2 and 42 and 35.4 and 38.9 and 39.5 and 42.8 and 39.3 and 39.9 and 40 and 37 and 42.6 and 40.9 and 39.2 and 38.5 and the “LW (Fig 4b)” value [1, 6] was 2.77 and 2.32 and 1.65 and 2.28 and 2.58 and 2.48 and 2.14 and 2.06 and 1.7 and 3.5 and 3.3 and 1.85 and 3.4 and 3.1 and 4.26 and 3.42 and 3.33 and 3.06 and 2.35 and 3.38 and 2.25 and 3.12 and 1.56. The diarrhea ([1]; mouse, in vivo) was “did not observe any diarrhea”, the “Chol (Fig. 4e)” value [1, 7] was 1.85 and 1.75 and the “Glu (Fig. 4e)” value [1, 7] was 12.37 and 16.62. For the same compound, the “HDL (Fig. 4e)” value [1, 7] was 1.205 and 1.168, the “LDL (Fig. 4e)” value [1, 7] was 0.45 and 0.42 and the “TG (Fig. 4e)” value [1, 7] was 1.205 and 1.168. It also gave a microsomal CLint ([2]; liver S9 fraction) of 3 µL/min/mg and a half-life ([2]; s9) of 1.87 h.
